Consider 2 compounds from patent US20250186408A1, “TREATMENT OF PHARMACORESISTANT EPILEPSY” (Katholieke Universiteit Leuven, priority 2021, published 2025).

Read-outs that look alike come from different tables or passages of the source.

One assay concerns the target T1, CCKAR (Homo sapiens, UniProt P32238).
T1 sequence (P32238 1-428): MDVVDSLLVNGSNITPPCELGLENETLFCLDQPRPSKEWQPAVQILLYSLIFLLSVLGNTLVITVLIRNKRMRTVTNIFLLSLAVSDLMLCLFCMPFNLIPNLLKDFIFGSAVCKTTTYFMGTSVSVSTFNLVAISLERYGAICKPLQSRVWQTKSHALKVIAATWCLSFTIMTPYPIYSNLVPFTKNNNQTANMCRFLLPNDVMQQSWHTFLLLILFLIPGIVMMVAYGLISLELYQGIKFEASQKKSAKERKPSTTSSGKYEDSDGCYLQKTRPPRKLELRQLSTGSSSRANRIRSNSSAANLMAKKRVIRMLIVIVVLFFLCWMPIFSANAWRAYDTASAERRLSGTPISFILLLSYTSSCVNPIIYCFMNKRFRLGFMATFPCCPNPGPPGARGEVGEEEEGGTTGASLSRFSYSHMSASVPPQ
Put plainly: Calcium Flux CCKAR Antagonist. The class given is cell-based. Conditions: for IC50: read-out: RC50, result type IC50; for Emax: read-out: Max response. As to the method:
(≤0.2% DMSO concentration). Assays were performed in 1× dye loading buffer consisting of 1× Dye (DiscoverX, Calcium No Wash^PLUS kit, Catalog No. 90-0091), 1× Additive A and 2.5 mM Probenecid in HBSS/20 mM HEPES. Probenecid was prepared fresh. Prior to testing, media was aspirated from cells and replaced with 25 μL dye loading buffer. Cells were incubated for 45 min at 37° C. and then 20 min at RT. For agonist determination, 25 μL of 2× compound in HBSS/20 mM HEPES was added using a FLIPR Tetra (MDS). […] 25 μL of 2× sample was added and cells were incubated for 30 min at RT in the dark to equilibrate plate temperature. After incubation, antagonist determination was initiated by addition of 25 μL of 1× compound with 3×EC80 agonist using FLIPR. For both agonist and antagonist formats, activity was measure on a FLIPR Tetra (MDS). Calcium mobilization was monitored for 2 min with a 5 sec baseline read.
FLIPR read—Area under the curve, was calculated for the entire 2 min read.
For orientation: Calcium flux is commonly read through the fluorescence of an indicator in the cells.

In another assay the target is DRD2S (Homo sapiens, UniProt P14416). Briefly: cAMP DRD2S Agonist. Conditions: for Emax: read-out: Max response.
The target of assay [1] is T2, AR (Homo sapiens, UniProt P10275).
T2 construct: enzyme fragment for PathHunter enzyme fragment complementation (EFC)
T2 sequence (P10275 1-920): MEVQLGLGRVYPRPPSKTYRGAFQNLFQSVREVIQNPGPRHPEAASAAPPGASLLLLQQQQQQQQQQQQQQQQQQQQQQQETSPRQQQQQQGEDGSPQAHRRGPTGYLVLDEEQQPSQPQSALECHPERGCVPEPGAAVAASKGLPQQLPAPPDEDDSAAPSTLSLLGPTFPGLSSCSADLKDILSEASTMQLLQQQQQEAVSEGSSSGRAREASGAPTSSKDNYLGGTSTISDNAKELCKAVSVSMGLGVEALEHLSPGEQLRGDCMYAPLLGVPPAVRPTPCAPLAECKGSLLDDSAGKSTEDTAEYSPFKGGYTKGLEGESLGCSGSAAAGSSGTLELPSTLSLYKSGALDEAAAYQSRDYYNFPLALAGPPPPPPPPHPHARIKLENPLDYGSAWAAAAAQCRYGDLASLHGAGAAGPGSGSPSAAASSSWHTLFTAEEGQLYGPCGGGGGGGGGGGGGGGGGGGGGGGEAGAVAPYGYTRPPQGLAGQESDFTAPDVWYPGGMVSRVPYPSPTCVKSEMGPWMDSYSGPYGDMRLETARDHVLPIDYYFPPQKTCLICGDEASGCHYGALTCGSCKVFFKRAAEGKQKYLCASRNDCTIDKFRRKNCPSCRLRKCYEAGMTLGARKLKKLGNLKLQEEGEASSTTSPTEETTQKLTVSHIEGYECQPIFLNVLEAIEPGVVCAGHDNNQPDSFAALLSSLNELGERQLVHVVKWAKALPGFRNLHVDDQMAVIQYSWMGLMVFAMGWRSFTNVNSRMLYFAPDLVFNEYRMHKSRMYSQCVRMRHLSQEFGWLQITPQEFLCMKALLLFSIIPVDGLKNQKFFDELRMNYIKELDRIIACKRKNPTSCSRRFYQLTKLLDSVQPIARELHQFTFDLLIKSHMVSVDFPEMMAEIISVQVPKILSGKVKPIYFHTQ
Briefly: NHR Nuclear Translocation AR Agonist. The class given is cell-based.
Method: (§1) In vitro pharmacological profiling of compounds was done against 78 functional assays for 47 common off-targets (30) by Eurofins DiscoverX Corporation (Fremont, CA, USA) using their SAFETYscan E/IC50 ELECT service (Cat Ref 87-1003DR, Safety47 Panel Dose Response). The following assays were performed: (1) GPCR cAMP modulation, (2) calcium mobilization, (3) nuclear hormone receptor assays, (4) KINOMEscan binding assays, (5) ion channel assays, (6) transporter assays and (7) enzymatic assays. Compounds were tested in a range of 10 concentrations, following a 3-fold serial dilution, starting from 10 μM. The assays were performed utilizing the PathHunter enzyme fragment complementation (EFC) technology, FLIPR®-based cellular screening assays, and KINOMEscan kinase binding assays.
(§2) Prior to testing, PathHunter NHR cell lines were expanded from freezer stocks and cells were seeded in a total volume of 20 μL into white walled 384-well microplates and incubated at 37° C. […] Microplates were read following signal generation with a PerkinElmer Envision™ instrument for chemiluminescent signal detection. Compound activity was analysed using CBIS data analysis suite (ChemInnovation, CA). For agonist mode assays, percentage activity was calculated using the following equation:

Assay [2] deals with T2, AR. Put plainly: NHR Nuclear Translocation AR Antagonist. The assay is classed as cell-based.
Method: as §1, §2
Assay [3] deals with T3, GR (Homo sapiens, UniProt P04150).
T3 construct: enzyme fragment for PathHunter enzyme fragment complementation (EFC)
T3 sequence (P04150 1-777): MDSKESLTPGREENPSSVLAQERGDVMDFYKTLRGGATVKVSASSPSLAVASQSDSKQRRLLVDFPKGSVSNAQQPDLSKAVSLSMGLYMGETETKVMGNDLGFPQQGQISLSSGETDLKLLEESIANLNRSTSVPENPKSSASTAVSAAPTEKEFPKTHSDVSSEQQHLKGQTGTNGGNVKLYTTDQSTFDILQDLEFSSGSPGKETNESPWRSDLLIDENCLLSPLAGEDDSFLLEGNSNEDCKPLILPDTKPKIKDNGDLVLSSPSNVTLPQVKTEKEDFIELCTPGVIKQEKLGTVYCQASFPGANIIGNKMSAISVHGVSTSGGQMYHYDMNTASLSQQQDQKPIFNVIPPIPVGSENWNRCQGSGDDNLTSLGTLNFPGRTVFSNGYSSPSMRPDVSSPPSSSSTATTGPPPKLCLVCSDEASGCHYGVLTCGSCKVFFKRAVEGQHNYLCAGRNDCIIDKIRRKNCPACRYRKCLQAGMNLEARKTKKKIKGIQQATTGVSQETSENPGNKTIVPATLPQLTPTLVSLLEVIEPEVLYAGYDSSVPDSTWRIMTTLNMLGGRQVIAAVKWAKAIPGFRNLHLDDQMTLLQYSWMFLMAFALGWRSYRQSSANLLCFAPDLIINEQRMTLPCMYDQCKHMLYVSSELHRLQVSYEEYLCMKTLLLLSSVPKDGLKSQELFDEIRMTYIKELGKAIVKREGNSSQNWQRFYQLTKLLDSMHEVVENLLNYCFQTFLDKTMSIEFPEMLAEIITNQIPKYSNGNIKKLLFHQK
Put plainly: NHR Protein Interaction GR Agonist. The class given is cell-based.
Method: as §1, §2

For assay [4], the target named is T3, GR. Briefly: NHR Protein Interaction GR Antagonist. The class given is cell-based.
Method: as §1, §2

DRD2S, sequence (P14416 1-414 isoform P14416-2): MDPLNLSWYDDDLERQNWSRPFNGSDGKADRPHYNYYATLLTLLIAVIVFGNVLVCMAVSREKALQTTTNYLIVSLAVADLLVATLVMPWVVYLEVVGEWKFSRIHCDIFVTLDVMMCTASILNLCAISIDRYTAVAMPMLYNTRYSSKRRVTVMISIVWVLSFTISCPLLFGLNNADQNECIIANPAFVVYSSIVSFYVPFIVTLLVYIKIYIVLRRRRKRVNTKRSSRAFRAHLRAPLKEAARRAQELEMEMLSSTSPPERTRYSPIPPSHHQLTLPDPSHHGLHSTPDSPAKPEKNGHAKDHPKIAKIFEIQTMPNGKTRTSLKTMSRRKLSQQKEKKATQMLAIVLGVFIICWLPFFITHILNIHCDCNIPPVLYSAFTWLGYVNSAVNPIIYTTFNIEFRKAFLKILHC
Method for DRD2S: In vitro pharmacological profiling of compounds was done against 78 functional assays for 47 common off-targets (30) by Eurofins DiscoverX Corporation (Fremont, CA, USA) using their SAFETYscan E/IC50 ELECT service (Cat Ref 87-1003DR, Safety47 Panel Dose Response). […] Compounds were tested in a range of 10 concentrations, following a 3-fold serial dilution, starting from 10 μM.
cAMP Hunter cell lines were expanded from freezer stocks. Prior to testing, cells were seeded in a total volume of 20 μL into white walled 384-well microplates and incubated at 37° C. cAMP modulation was determined using the DiscoverX HitHunter cAMP XS+ assay. For Gs agonist determination, cells were incubated with sample to induce response. For Gi agonist determination, cells were incubated with sample in the presence of EC80 forskolin to induce response. For both conditions, media was aspirated from cells and replaced with 15 μL 2:1 HBSS/10 mM HEPES:cAMP XS+ Ab reagent. Intermediate dilution of sample stocks was performed to generate 4× sample in assay buffer (containing 4×EC80 forskolin in the case of antagonist determination). 5 μL of 4× sample was added to cells and incubated at 37° C. or room temperature (RT) for 30 or 60 min. Final assay vehicle concentration was 1%. For antagonist determination, cells were pre-incubated with sample followed by agonist challenge at the EC80 concentration. Media was aspirated from cells and replaced with 10 μL 1:1 HBSS/HEPES:cAMP XS+ Ab reagent. 5 μL of 4× compound was added to the cells and incubated at 37° C. or RT for 30 min. 5 μL of 4×EC80 agonist was added to the cells and incubated at 37° C. or RT for 30 or 60 min. For Gi coupled GPCRs, EC80 forskolin was included. […] Microplates were read following signal generation with a PerkinElmer Envision™ instrument for chemiluminescent signal detection. Compound activity was analyzed using CBIS data analysis suite (ChemInnovation, CA).

As to `CC(C)(C)c1ccc(C#CC(O)c2ccccc2)cc1` (racemic) [Compound 3.3, rac-3-(4-(tert-butyl)phenyl)-1-phenylprop-2-yn-1-ol], at CCKAR (Calcium Flux CCKAR Antagonist), the IC50 was above 10 µM. For the same compound, the Emax on CCKAR and on DRD2S was 0% throughout. The EC50 at DRD2S is above 10 µM.
As for `Clc1cccc(C#Cc2n[nH]c3ncccc23)c1` [Compound 10.1, 3-((3-chlorophenyl)ethynyl)-1H-pyrazolo[3,4-b]pyridine], the Emax on CCKAR (Calcium Flux CCKAR Antagonist) was 0%; on AR [1] (NHR Nuclear Translocation AR Agonist, read-out: Max response) it was 0%; on AR [2] (NHR Nuclear Translocation AR Antagonist, read-out: Max response), 4.6%; at GR [3] (read-out: Max response), 0%; on GR [4] (read-out: Max response), 2.6%; at DRD2S it was 15%. Also, the IC50 on CCKAR (Calcium Flux CCKAR Antagonist) is above 10 µM; against AR [2] it was above 10 µM; at GR [4] (read-out: RC50, result type IC50), above 10 µM. The EC50 at AR [1] is above 10 µM; on GR [3] (read-out: RC50, result type EC50), above 10 µM; at DRD2S it was above 10 µM.

In general, IC50 refers to the concentration that gives 50% inhibition. A word on the EC50: it is the midpoint of the concentration-response curve.
